From ChEMBL document CHEMBL1127941, “Norleucine as a replacement for methionine in phosphatase-resistant linear and cyclic peptides which bind to p85 SH2 domains” (Bioorg Med Chem Lett, 1994)
Numbered stars: 1 amine (or outer) side, 2 acyl side, 3 side chain; on linkers, the order of the positions; unused ones are H or OH. Square brackets hold non-standard residues; d marks the D form. Peptide text beside a SMILES is read from it. X2 = O=C([C@@H](Cc1ccc(C(F)(F)OP(=O)(O)O)cc1)N[*:1])[*:2]; X1 = O=C([C@H](Cc1ccc(C(F)(F)OP(=O)(O)O)cc1)N[*:1])[*:2]; Pmp = N[C@@H](Cc1ccc(CP(=O)(O)O)cc1)C(=O)O; pY = N[C@@H](Cc1ccc(OP(=O)(O)O)cc1)C(=O)O; Nle = CCCC[C@H](N)C(=O)O

assay: Binding affinity to Phosphatidylinositol 3-kinase C-terminal p85 SH2 domain

| SMILES | ID50 |
| --- | --- |
| CCCC[C@@H]1NC(=O)[C@H]2CCCN2C(=O)[C@H](C(C)C)NC(=O)[C@@H](Cc2ccc(OP(=O)(O)O)cc2)NC(=O)CNC(=O)[C@@H](CC(C)C)NC1=O | 15.6 µM |
| CSCC[C@@H]1NC(=O)[C@H]2CCCN2C(=O)[C@H](C(C)C)NC(=O)[C@@H](Cc2ccc(COP(=O)(O)O)cc2)NC(=O)CNC(=O)[C@@H](CC(C)C)NC1=O | 5.2 µM |
| CSCC[C@@H]1NC(=O)[C@H]2CCCN2C(=O)[C@H](C(C)C)NC(=O)[C@@H](Cc2ccc(OP(=O)(O)O)cc2)NC(=O)CNC(=O)[C@@H](CC(C)C)NC1=O | 1.01 µM |
| CSCC[C@H](NC(=O)[C@@H]1CCCN1C(=O)[C@@H](NC(=O)[C@H](Cc1ccc(CP(=O)(O)O)cc1)NC(=O)CN)C(C)C)C(=O)N[C@@H](CC(C)C)C(=O)O (H-G[Pmp]VPML-OH) | 0.98 µM |
| CCCC[C@H](NC(=O)[C@@H]1CCCN1C(=O)[C@@H](NC(=O)[C@H](Cc1ccc(CP(=O)(O)O)cc1)NC(=O)CN)C(C)C)C(=O)N[C@@H](CC(C)C)C(=O)O (H-G[Pmp]VP[Nle]L-OH) | 1.6 µM |
| CSCC[C@H](NC(=O)[C@@H]1CCCN1C(=O)[C@@H](NC(=O)[C@H](Cc1ccc(OP(=O)(O)O)cc1)NC(=O)CN)C(C)C)C(=O)N[C@@H](CC(C)C)C(=O)O (H-G[pY]VPML-OH) | 0.17 µM |
| CSCC[C@@H]1NC(=O)[C@@H]2CCCN2C(=O)[C@H](C(C)C)NC(=O)[C@H](Cc2ccc(C(F)(F)OP(=O)(O)O)cc2)NC(=O)CNC(=O)[C@H](CC(C)C)NC1=O (cyclo(G[X1]VPML)) | 2.24 µM |
| CCCC[C@@H]1NC(=O)[C@@H]2CCCN2C(=O)[C@H](C(C)C)NC(=O)[C@H](Cc2ccc(C(F)(F)OP(=O)(O)O)cc2)NC(=O)CNC(=O)[C@H](CC(C)C)NC1=O (cyclo(G[X1]VP[Nle]L)) | 8.9 µM |
| CSCC[C@@H]1NC(=O)[C@@H]2CCCN2C(=O)[C@H](C(C)C)NC(=O)[C@@H](Cc2ccc(C(F)(F)OP(=O)(O)O)cc2)NC(=O)CNC(=O)[C@H](CC(C)C)NC1=O (cyclo(G[X2]VPML)) | 32.4 µM |
| CCCC[C@@H]1NC(=O)[C@@H]2CCCN2C(=O)[C@H](C(C)C)NC(=O)[C@@H](Cc2ccc(C(F)(F)OP(=O)(O)O)cc2)NC(=O)CNC(=O)[C@H](CC(C)C)NC1=O (cyclo(G[X2]VP[Nle]L)) | 59.1 µM |
| CCCC[C@H](NC(=O)[C@@H]1CCCN1C(=O)[C@@H](NC(=O)C(Cc1ccc(CP(=O)(O)O)cc1)NC(=O)CN)C(C)C)C(=O)N[C@@H](CC(C)C)C(=O)O (single isomer, unassigned) | 109 µM |
| CSCC[C@H](NC(=O)[C@@H]1CCCN1C(=O)[C@@H](NC(=O)C(Cc1ccc(CP(=O)(O)O)cc1)NC(=O)CN)C(C)C)C(=O)N[C@@H](CC(C)C)C(=O)O (single isomer, unassigned) | 29.4 µM |
